Article PMC11173382, “In Vitro Investigations into the Potential Drug Interactions of Pseudoginsenoside DQ Mediated by Cytochrome P450 and Human Drug Transporters” (Molecules, 2024)

Biological target: T1, hOATP1B3 (Homo sapiens, UniProt Q9NPD5)
T1 sequence (Q9NPD5 1-702): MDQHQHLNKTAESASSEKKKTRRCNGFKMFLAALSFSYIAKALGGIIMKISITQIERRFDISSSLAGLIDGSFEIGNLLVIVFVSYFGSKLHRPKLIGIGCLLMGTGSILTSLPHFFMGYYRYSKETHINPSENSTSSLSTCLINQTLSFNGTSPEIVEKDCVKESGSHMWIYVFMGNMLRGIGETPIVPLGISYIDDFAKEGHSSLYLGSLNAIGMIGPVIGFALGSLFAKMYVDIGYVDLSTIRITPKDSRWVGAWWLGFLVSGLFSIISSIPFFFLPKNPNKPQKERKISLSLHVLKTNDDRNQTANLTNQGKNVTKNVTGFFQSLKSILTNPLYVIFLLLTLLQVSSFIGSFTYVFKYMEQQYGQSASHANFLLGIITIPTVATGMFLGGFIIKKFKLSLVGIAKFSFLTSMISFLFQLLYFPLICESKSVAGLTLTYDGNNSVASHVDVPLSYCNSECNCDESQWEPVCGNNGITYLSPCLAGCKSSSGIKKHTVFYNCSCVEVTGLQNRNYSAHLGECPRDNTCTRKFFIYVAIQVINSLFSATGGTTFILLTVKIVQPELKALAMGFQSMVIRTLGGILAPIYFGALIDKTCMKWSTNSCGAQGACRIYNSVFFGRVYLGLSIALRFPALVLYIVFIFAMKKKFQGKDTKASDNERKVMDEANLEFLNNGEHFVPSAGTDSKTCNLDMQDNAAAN
Assay: Substrates uptake assay, HEK293A-OATP1B3 cells (3H-EG)
Format: in vitro ADME
Description: Drug transporters mediate the cellular uptake and efflux of their substrates. Therefore, cell lines overexpressing a drug transporter can be utilized to investigate inhibitors of the transporter by assessing changes in substrate uptake. For each drug transporter, we selected a well-characterized inhibitor as the positive control. Radiolabeled substrates were used to indicate the decrease in transport efficiency when the drug transporters were inhibited by PDQ or the control inhibitors.
The concentrations of the control drugs and the substrates were stated in the assay details. Working solutions of the control inhibitors, the radiolabeled substrates, and each dose of PDQ were prepared at 200 times (200×) more concentrated solutions with DMSO for further dilution.
Transporter-overexpressed cell lines. Human organic anion transporter-overexpressed cell lines MDCKII-OAT1 and S2-OAT3, human organic anion transport polypeptide-overexpressed cell lines HEK293A-OATP1B1 and HEK293A-OATP1B3, human organic cation transporter 2-overexpressed cell line S2-OCT2, and human multi-drug resistance protein MDR1 (or P-gp)-overexpressed cell line MDCKII-MDR1 were gifts from Japan Fuji Biomedical Co., Ltd. (Fuji, Shizuoka Prefecture, Japan). Breast cancer resistance protein-overexpressed vesicles (sf9-BCRP vesicle) were purchased from GenoMembrane Co., Ltd. (Yokohama, Kanagawa, Japan).
Substrates uptake assay. In this assay, we studied the inhibition of PDQ against transporters OAT1, OAT3, OCT2, OATP1B1 and OATP1B3 with MDCKII-OAT1, S2-OAT3, S2-OCT2, HEK293A-OATP1B1and HEK293A-OATP1B3 cells, respectively. The radiolabeled substrates for OAT1, OAT3, OATP1B1, OATP1B3 and OCT2 were […], respectively (Table 5). Probenecid ([…]) was the positive control inhibitor of OAT1 and OAT3, while rifampicin ([…]) served as the control drug of OATP1B1 and OATP1B3. For OCT2, we used […] cimetidine to compare with the inhibitory effect of PDQ. Two times (2×) more concentrated working solutions of the drugs and the substrate were prepared with Dulbecco’s phosphate-buffered saline (DPBS, Gibco, Grand Island, NY, USA.). Then, an equal volume of 2× drug solution and 2× radiolabeled substrate solution were mixed as the working mix. All reagents were pre-warmed to 37 °C.
The cells were digested with 0.05% trypsin/EDTA. The density of the single-cell suspension was adjusted to 2.0 × 10^5 cells/mL for S2 cells and to 1.5 × 10^5 cells/mL for MDCK II and HEK293A cells. The cell suspension was then added to the reservoirs of the 24-well plate for culture until full confluency. The medium in the wells was removed, and the wells were washed with DPBS. Then, the plate was incubated for 10 min with pre-warmed DPBS in the wells. After removing DPBS, […] of working mix was added to each well to initiate the substrate uptake process. The reaction time was 5 min for S2-OCT2 cells, while the other four types of cells were incubated with the reaction mix for 2 min. Cold DPBS was used to terminate the substrate transportation. To each well, […] NaOH ([…]) was added to lyse the cells. Then, […] cell lysate was transferred to the counting vials, and 3 mL scintillation cocktail (Aquasol-2, PerkinElmer, Waltham, MA, USA) was added. […] Each sample was replicated three times (N = 3).
In = [100 × (U − U0)/(Uc − U0)]%(3)
The results were expressed as mean ± standard deviation (SD) and analyzed with GraphPad Prism 8.0 software (CA, USA). The IC50 of PDQ was curve-fitted with the FORECAST function. Statistical significance was calculated using a two-tailed test, and a p value < 0.05 was considered as significant.

CC(C)(O)[C@@H]1CC[C@@](C)([C@H]2CC[C@]3(C)[C@@H]2[C@H](O)C[C@@H]2[C@@]4(C)CC[C@H](O)C(C)(C)[C@@H]4CC[C@]23C)O1 [PDQ, (20S,24S)-dammar-20,24-epoxy-3β, 12β, 25-triol]
IC50 (HEK293A-OATP1B3, 3H-EG 1 µM, 2 min): > 30 µM | DPM (3H-EG uptake by OATP1B3) (inhibitor 0.1 μM): 3332.7±245.2 DPM | DPM (3H-EG uptake by OATP1B3) (inhibitor 0.3 μM): 3200.3±323.1 DPM | DPM (3H-EG uptake by OATP1B3) (inhibitor 1 μM): 3093.3±182.0 DPM | DPM (3H-EG uptake by OATP1B3) (inhibitor 3 μM): 2980.7±186.5 DPM | DPM (3H-EG uptake by OATP1B3) (inhibitor 10 μM): 2985.0±250.2 DPM | DPM (3H-EG uptake by OATP1B3) (inhibitor 30 μM): 2649.0±200.2 DPM
